Assay results as given in BigSolDB 2.1.

## NC(=O)c1ccccc1N
In THF, 273.15 K
  solubility (mole fraction): 0.226
In THF, 279.15 K
  solubility (mole fraction): 0.237
In THF, 283.65 K
  solubility (mole fraction): 0.245
In THF, 289.15 K
  solubility (mole fraction): 0.255
In THF, 293.45 K
  solubility (mole fraction): 0.263
In THF, 299.15 K
  solubility (mole fraction): 0.275
In THF, 303.35 K
  solubility (mole fraction): 0.284
In THF, 309.15 K
  solubility (mole fraction): 0.296
In THF, 313.75 K
  solubility (mole fraction): 0.31
In THF, 319.15 K
  solubility (mole fraction): 0.326
In THF, 323.65 K
  solubility (mole fraction): 0.339
In acetone, 273.15 K
  solubility (mole fraction): 0.164
In acetone, 279.15 K
  solubility (mole fraction): 0.181
In acetone, 284.15 K
  solubility (mole fraction): 0.193
In acetone, 289.15 K
  solubility (mole fraction): 0.208
In acetone, 293.35 K
  solubility (mole fraction): 0.223
In acetone, 298.95 K
  solubility (mole fraction): 0.243
In acetone, 303.35 K
  solubility (mole fraction): 0.265
In acetone, 308.65 K
  solubility (mole fraction): 0.292
In acetone, 313.15 K
  solubility (mole fraction): 0.313
In acetone, 317.15 K
  solubility (mole fraction): 0.341
In acetone, 324.15 K
  solubility (mole fraction): 0.386
In acetonitrile, 273.15 K
  solubility (mole fraction): 0.01
In acetonitrile, 279.15 K
  solubility (mole fraction): 0.0139
In acetonitrile, 283.65 K
  solubility (mole fraction): 0.0194
In acetonitrile, 289.15 K
  solubility (mole fraction): 0.0267
In acetonitrile, 293.45 K
  solubility (mole fraction): 0.0371
In acetonitrile, 299.15 K
  solubility (mole fraction): 0.0531
In acetonitrile, 303.35 K
  solubility (mole fraction): 0.066
In acetonitrile, 309.15 K
  solubility (mole fraction): 0.0871
In acetonitrile, 313.75 K
  solubility (mole fraction): 0.111
In acetonitrile, 319.15 K
  solubility (mole fraction): 0.151
In acetonitrile, 323.65 K
  solubility (mole fraction): 0.183
In ethanol, 273.15 K
  solubility (mole fraction): 0.0302
In ethanol, 279.15 K
  solubility (mole fraction): 0.0356
In ethanol, 284.15 K
  solubility (mole fraction): 0.04
In ethanol, 289.15 K
  solubility (mole fraction): 0.0477
In ethanol, 293.35 K
  solubility (mole fraction): 0.0554
In ethanol, 298.95 K
  solubility (mole fraction): 0.0648
In ethanol, 303.35 K
  solubility (mole fraction): 0.0742
In ethanol, 313.15 K
  solubility (mole fraction): 0.105
In ethanol, 317.15 K
  solubility (mole fraction): 0.117
In ethanol, 324.15 K
  solubility (mole fraction): 0.143
In ethyl acetate, 273.15 K
  solubility (mole fraction): 0.053
In ethyl acetate, 279.15 K
  solubility (mole fraction): 0.0608
In ethyl acetate, 283.65 K
  solubility (mole fraction): 0.0684
In ethyl acetate, 289.15 K
  solubility (mole fraction): 0.0778
In ethyl acetate, 293.45 K
  solubility (mole fraction): 0.0856
In ethyl acetate, 299.15 K
  solubility (mole fraction): 0.0977
In ethyl acetate, 303.35 K
  solubility (mole fraction): 0.108
In ethyl acetate, 309.15 K
  solubility (mole fraction): 0.123
In ethyl acetate, 313.75 K
  solubility (mole fraction): 0.134
In ethyl acetate, 319.15 K
  solubility (mole fraction): 0.154
In ethyl acetate, 323.65 K
  solubility (mole fraction): 0.169
In isobutanol, 273.15 K
  solubility (mole fraction): 0.0101
In isobutanol, 279.15 K
  solubility (mole fraction): 0.013
In isobutanol, 284.15 K
  solubility (mole fraction): 0.0153
In isobutanol, 289.15 K
  solubility (mole fraction): 0.0176
In isobutanol, 293.35 K
  solubility (mole fraction): 0.0211
In isobutanol, 298.95 K
  solubility (mole fraction): 0.0261
In isobutanol, 303.35 K
  solubility (mole fraction): 0.0301
In isobutanol, 308.65 K
  solubility (mole fraction): 0.0369
In isobutanol, 313.15 K
  solubility (mole fraction): 0.044
In isobutanol, 317.15 K
  solubility (mole fraction): 0.0504
In isobutanol, 324.15 K
  solubility (mole fraction): 0.0629
In isopentanol, 273.15 K
  solubility (mole fraction): 0.0117
In isopentanol, 279.15 K
  solubility (mole fraction): 0.014
In isopentanol, 283.65 K
  solubility (mole fraction): 0.0152
In isopentanol, 289.15 K
  solubility (mole fraction): 0.0181
In isopentanol, 293.25 K
  solubility (mole fraction): 0.0217
In isopentanol, 298.95 K
  solubility (mole fraction): 0.0273
In isopentanol, 303.25 K
  solubility (mole fraction): 0.0312
In isopentanol, 308.15 K
  solubility (mole fraction): 0.0391
In isopentanol, 313.15 K
  solubility (mole fraction): 0.0458
In isopentanol, 318.15 K
  solubility (mole fraction): 0.055
In isopentanol, 323.15 K
  solubility (mole fraction): 0.0647
In isopropanol, 273.15 K
  solubility (mole fraction): 0.0145
In isopropanol, 279.15 K
  solubility (mole fraction): 0.0182
In isopropanol, 284.15 K
  solubility (mole fraction): 0.0216
In isopropanol, 289.15 K
  solubility (mole fraction): 0.0253
In isopropanol, 293.35 K
  solubility (mole fraction): 0.0297
In isopropanol, 298.95 K
  solubility (mole fraction): 0.0355
In isopropanol, 303.35 K
  solubility (mole fraction): 0.042
In isopropanol, 308.65 K
  solubility (mole fraction): 0.0505
In isopropanol, 313.15 K
  solubility (mole fraction): 0.0593
In isopropanol, 317.15 K
  solubility (mole fraction): 0.0676
In isopropanol, 324.15 K
  solubility (mole fraction): 0.0844
In methanol, 273.15 K
  solubility (mole fraction): 0.05
In methanol, 279.15 K
  solubility (mole fraction): 0.0604
In methanol, 284.15 K
  solubility (mole fraction): 0.0684
In methanol, 289.15 K
  solubility (mole fraction): 0.0798
In methanol, 293.35 K
  solubility (mole fraction): 0.0905
In methanol, 298.95 K
  solubility (mole fraction): 0.106
In methanol, 303.35 K
  solubility (mole fraction): 0.123
In methanol, 308.65 K
  solubility (mole fraction): 0.148
In methanol, 313.15 K
  solubility (mole fraction): 0.17
In methanol, 317.15 K
  solubility (mole fraction): 0.19
In methanol, 324.15 K
  solubility (mole fraction): 0.229
In methyl acetate, 273.15 K
  solubility (mole fraction): 0.0644
In methyl acetate, 279.15 K
  solubility (mole fraction): 0.0723
In methyl acetate, 283.65 K
  solubility (mole fraction): 0.0797
In methyl acetate, 289.15 K
  solubility (mole fraction): 0.0892
In methyl acetate, 293.25 K
  solubility (mole fraction): 0.1
In methyl acetate, 298.95 K
  solubility (mole fraction): 0.114
In methyl acetate, 303.25 K
  solubility (mole fraction): 0.127
In methyl acetate, 308.15 K
  solubility (mole fraction): 0.144
In methyl acetate, 313.15 K
  solubility (mole fraction): 0.163
In methyl acetate, 318.15 K
  solubility (mole fraction): 0.186
In methyl acetate, 323.15 K
  solubility (mole fraction): 0.208
In n-butanol, 273.15 K
  solubility (mole fraction): 0.0162
In n-butanol, 279.15 K
  solubility (mole fraction): 0.0198
In n-butanol, 284.15 K
  solubility (mole fraction): 0.0232
In n-butanol, 289.15 K
  solubility (mole fraction): 0.0268
In n-butanol, 293.35 K
  solubility (mole fraction): 0.0312
In n-butanol, 298.95 K
  solubility (mole fraction): 0.0362
In n-butanol, 303.35 K
  solubility (mole fraction): 0.0423
In n-butanol, 308.65 K
  solubility (mole fraction): 0.0492
In n-butanol, 313.15 K
  solubility (mole fraction): 0.0579
In n-butanol, 317.15 K
  solubility (mole fraction): 0.065
In n-butanol, 324.15 K
  solubility (mole fraction): 0.0788
In n-hexanol, 273.15 K
  solubility (mole fraction): 0.0141
In n-hexanol, 279.15 K
  solubility (mole fraction): 0.0166
In n-hexanol, 283.65 K
  solubility (mole fraction): 0.0174
In n-hexanol, 289.15 K
  solubility (mole fraction): 0.0216
In n-hexanol, 293.25 K
  solubility (mole fraction): 0.0246
In n-hexanol, 298.95 K
  solubility (mole fraction): 0.0297
In n-hexanol, 303.25 K
  solubility (mole fraction): 0.034
In n-hexanol, 308.15 K
  solubility (mole fraction): 0.0407
In n-hexanol, 313.15 K
  solubility (mole fraction): 0.0468
In n-hexanol, 318.15 K
  solubility (mole fraction): 0.0557
In n-hexanol, 323.15 K
  solubility (mole fraction): 0.0641
In n-octanol, 273.15 K
  solubility (mole fraction): 0.0143
In n-octanol, 279.15 K
  solubility (mole fraction): 0.0159
In n-octanol, 283.65 K
  solubility (mole fraction): 0.0176
In n-octanol, 289.15 K
  solubility (mole fraction): 0.0206
In n-octanol, 293.25 K
  solubility (mole fraction): 0.0235
In n-octanol, 298.95 K
  solubility (mole fraction): 0.0275
In n-octanol, 303.25 K
  solubility (mole fraction): 0.0316
In n-octanol, 308.15 K
  solubility (mole fraction): 0.0377
In n-octanol, 313.15 K
  solubility (mole fraction): 0.0434
In n-octanol, 318.15 K
  solubility (mole fraction): 0.0505
In n-octanol, 323.15 K
  solubility (mole fraction): 0.0582
In n-pentanol, 273.15 K
  solubility (mole fraction): 0.0152
In n-pentanol, 279.15 K
  solubility (mole fraction): 0.0183
In n-pentanol, 284.15 K
  solubility (mole fraction): 0.0207
In n-pentanol, 289.15 K
  solubility (mole fraction): 0.0243
In n-pentanol, 293.35 K
  solubility (mole fraction): 0.0276
In n-pentanol, 298.95 K
  solubility (mole fraction): 0.0326
In n-pentanol, 303.35 K
  solubility (mole fraction): 0.0379
In n-pentanol, 308.65 K
  solubility (mole fraction): 0.044
In n-pentanol, 313.15 K
  solubility (mole fraction): 0.0514
In n-pentanol, 317.15 K
  solubility (mole fraction): 0.0579
In n-pentanol, 324.15 K
  solubility (mole fraction): 0.0703
In n-propanol, 273.15 K
  solubility (mole fraction): 0.0193
In n-propanol, 279.15 K
  solubility (mole fraction): 0.0232
In n-propanol, 284.15 K
  solubility (mole fraction): 0.027
In n-propanol, 289.15 K
  solubility (mole fraction): 0.0314
In n-propanol, 293.35 K
  solubility (mole fraction): 0.0363
In n-propanol, 303.35 K
  solubility (mole fraction): 0.0513
In n-propanol, 308.65 K
  solubility (mole fraction): 0.0626
In n-propanol, 313.15 K
  solubility (mole fraction): 0.0728
In n-propanol, 317.15 K
  solubility (mole fraction): 0.0842
In n-propanol, 324.15 K
  solubility (mole fraction): 0.105
